The record followed here is ChEMBL document CHEMBL1201862, “PubChem BioAssay data set” (2004).

Among the test systems are SNB-75; IGROV-1; A498; OVCAR-5; SR; UACC-257; MOLT-4; NCI-H226; ACHN; Hs-578T; SF-268; LOX IMVI; SN12C; CCRF-CEM; SK-MEL-28; SK-OV-3; EKVX; U-251; COLO 205; T47D.
Common to all, as to assay: inhibition of tumour cell growth, NCI panel, 48 h

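Compound exposure: 48 hours, 5 concentrations, 96-well plates. Abbreviation: GI50, concentration required for 50% inhibition of growth.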 Activity calls are given as the source filed them. Rule as the data show it: active = GI50 up to about 1.1 µM and inactive = higher.

Turning to `O=C1NC(Cc2ccc(O)cc2)C(=O)NC1Cc1ccc(O)cc1` (stereo not drawn), the GI50 is 28.2 µM (inactive) in the test on SNB-75; > 100 µM (inactive) with IGROV-1; > 100 µM (inactive) in the test on A498; > 100 µM (inactive) with OVCAR-5; > 100 µM (inactive) in the test on SR; > 100 µM (inactive) in the test with UACC-257. Also, the GI50 with MOLT-4, with NCI-H226, in the test with ACHN, with Hs-578T, with SF-268 and with LOX IMVI was > 100 µM (inactive) throughout. Also, the GI50 in the test on SN12C was 27.1 µM (inactive); in the test with CCRF-CEM, > 100 µM (inactive); with SK-MEL-28 it was > 100 µM (inactive); in the test with SK-OV-3 it was > 100 µM (inactive); in the test on EKVX it was > 100 µM (inactive); with U-251, > 100 µM (inactive). Also, in the test on COLO 205, the GI50 was > 100 µM (inactive).

For `CCCCCCCCCCCCCCCC(=O)OCC1OC(OC)C(NC(=O)N(CCCl)N=O)C(O)C1O` (stereo not drawn), the GI50 is 7 µM (inactive) in the test on SNB-75; 18.1 µM (inactive) in the test with IGROV-1; 29.6 µM (inactive) in the test on A498; 35 µM (inactive) in the test on OVCAR-5; 0.851 µM (active) with SR; 19.7 µM (inactive) with UACC-257. Besides, the GI50 in the test on MOLT-4 is 6.32 µM (inactive); with NCI-H226 it was 15.5 µM (inactive); in the test on ACHN, 13.4 µM (inactive); in the test on Hs-578T, 23 µM (inactive); in the test on SF-268, 3.34 µM (inactive); in the test with LOX IMVI, 2.36 µM (inactive). The GI50 is 13.4 µM (inactive) in the test on SN12C; 7.36 µM (inactive) with CCRF-CEM; 28.5 µM (inactive) in the test on SK-MEL-28; 21.8 µM (inactive) in the test with SK-OV-3; 31.2 µM (inactive) in the test with EKVX; 8.38 µM (inactive) in the test with U-251. For the same compound, the GI50 with COLO 205 is 19.2 µM (inactive).

Take `CNC(=O)c1nnn(Cc2ccccc2)c1S`: the GI50 in the test on SNB-75, in the test on IGROV-1, in the test with OVCAR-5, in the test with UACC-257, in the test with MOLT-4 and in the test with NCI-H226 was > 100 µM (inactive) in each case. Moreover, the GI50 in the test on ACHN, in the test on SN12C, with CCRF-CEM, with T47D, with SK-MEL-28 and with SK-OV-3 was > 100 µM (inactive) in each case. The GI50 in the test with EKVX, in the test with U-251 and with COLO 205 was > 100 µM (inactive) each time.

Turning to `CC(O)=NC(Cc1ccc2ccccc2c1)C(O)=NC(Cc1ccc(Cl)cc1)C(O)=NC(Cc1c[nH]c2ccccc12)C(O)=NC(CO)C(O)=NC(Cc1ccc(O)cc1)C(O)=NC(CCCN=C(N)N)C(O)=NC(CC(C)C)C(O)=NC(CCCN=C(N)N)C(=O)N1CCCC1C(O)=NC(C)C(=N)O` (stereo not drawn), the GI50 in the test on SNB-75 is 38.1 µM (inactive); in the test with IGROV-1 it was 33.7 µM (inactive); with A498, 37.6 µM (inactive); with OVCAR-5, 41.3 µM (inactive); with SR, > 100 µM (inactive); in the test with UACC-257 it was 32.4 µM (inactive). The GI50 was > 100 µM (inactive) with MOLT-4; 30.1 µM (inactive) with NCI-H226; 15 µM (inactive) in the test on ACHN; 47.4 µM (inactive) with Hs-578T; > 100 µM (inactive) in the test with SF-268; 37.5 µM (inactive) in the test with SN12C. Besides, the GI50 with CCRF-CEM was > 100 µM (inactive); in the test with SK-OV-3, 43.5 µM (inactive); in the test with EKVX, 39.5 µM (inactive); in the test on U-251 it was 31.6 µM (inactive); with COLO 205, 26.3 µM (inactive).

As to `CCOC(=O)Cc1cc(=O)oc2cc(O)ccc12`, the GI50 was > 100 µM (inactive) in the test on SNB-75; > 100 µM (inactive) in the test on IGROV-1; > 100 µM (inactive) in the test with A498; 59.4 µM (inactive) in the test on OVCAR-5; > 100 µM (inactive) in the test on SR; > 100 µM (inactive) in the test with UACC-257. The GI50 in the test on MOLT-4, with NCI-H226, in the test on ACHN, in the test with Hs-578T, with SF-268 and in the test with LOX IMVI was > 100 µM (inactive) in each case. The GI50 in the test on SN12C, in the test with CCRF-CEM, in the test with SK-MEL-28, in the test with SK-OV-3, in the test on EKVX and in the test with U-251 was > 100 µM (inactive) in each case. The GI50 with COLO 205 is > 100 µM (inactive).

In the case of `COc1cc2c(c(OC)c1)/C(=C/Sc1ccccc1)C(=O)N(C(C)(C)C)C2`, the GI50 with IGROV-1 was 22.3 µM (inactive); in the test on A498, 32.4 µM (inactive); in the test with OVCAR-5, 52.6 µM (inactive); in the test on SR, 19.8 µM (inactive); with UACC-257, 30.6 µM (inactive); in the test with MOLT-4, 21.3 µM (inactive). The GI50 in the test on NCI-H226 was 51.6 µM (inactive); in the test on ACHN it was 35.3 µM (inactive); with SF-268, 14.1 µM (inactive); with LOX IMVI, 18.8 µM (inactive); with SN12C, 24 µM (inactive); in the test with CCRF-CEM, 29.2 µM (inactive). The GI50 in the test on T47D was 26.7 µM (inactive); in the test on SK-MEL-28 it was 38.9 µM (inactive); with SK-OV-3 it was 14.2 µM (inactive); in the test with EKVX, 29.6 µM (inactive); in the test with U-251, 29.8 µM (inactive); in the test on COLO 205, 26.2 µM (inactive).

For `COC(CN(C(=O)c1ccccc1)C1CCC2(SCCS2)c2[nH]c3ccccc3c21)OC` (stereo not drawn), the GI50 is 20.2 µM (inactive) in the test with SNB-75; 40.6 µM (inactive) with IGROV-1; 46.6 µM (inactive) with A498; 33.7 µM (inactive) with OVCAR-5; 30.4 µM (inactive) with SR; 14.4 µM (inactive) with UACC-257. For the same compound, the GI50 was 14.6 µM (inactive) with MOLT-4; 83.8 µM (inactive) with NCI-H226; 27.8 µM (inactive) in the test on ACHN; 75.2 µM (inactive) in the test on Hs-578T; > 100 µM (inactive) in the test on SF-268; 2.18 µM (inactive) in the test with LOX IMVI. Further, the GI50 was 24.2 µM (inactive) with SN12C; 44.2 µM (inactive) with CCRF-CEM; 61.2 µM (inactive) in the test on SK-MEL-28; 19.6 µM (inactive) in the test on EKVX; 25.9 µM (inactive) with U-251; 21.9 µM (inactive) in the test with COLO 205.

Take `CCOC(=O)NC(=O)c1cn(CCN2CCN(c3ncnc4[nH]cnc34)CC2)c(=O)[nH]c1=O`: the GI50 in the test with SNB-75, in the test with IGROV-1, in the test with A498, with OVCAR-5, with SR and with UACC-257 was > 100 µM (inactive) each time. The GI50 in the test on MOLT-4, in the test on NCI-H226, in the test on ACHN, in the test with SF-268, in the test on LOX IMVI and in the test on SN12C was > 100 µM (inactive) throughout. Further, the GI50 in the test with CCRF-CEM, in the test on SK-MEL-28, with SK-OV-3, in the test on EKVX, with U-251 and with COLO 205 was > 100 µM (inactive) throughout.
